Results on 14 compounds are retold here after patent US5594006A, “Carbostyril derivatives as matrix metalloproteinases inhibitors” (Otsuka Pharmaceutical Co., Ltd., priority 1993, dated 1997).

One test concerns the target Type IV collagenase. The test is described as follows: Type IV collagenase inhibiting activity (fluorescence labeled gelatin). The class given is biochemical, human. Particulars: from HT-1080 cell; 6 hours at 37° C., pH 7.5. The method, then:
(3) Measuring Method of Type IV Collagenase Inhibiting Activity
Inhibiting of type IV collagenase refined from the culture supernatant of human […] (HT-1080 cell) was measured by using fluorescence labeled gelatin, according to the method proposed by Haris et al. [Haris, E. D., and Krane, S. M., Biochim. Biophys. Acta., 258, 566-576 (1972)].
The enzyme was activated by incubating for 22 hours at 37° C. in 1 mM mercury (II) p-aminophenylacetate. The test compound was used by dissolving in dimethyl sulfoxide. The enzyme reaction was started by adding the activated enzyme in 50 mM TRIS-hydrochloric acid (pH 7.5), 10 mM CaCl2, 0.01% (w/v) "Bridge 35" (tradename, available from Wako Pure Chemical Industries, Ltd.), 0.1% (v/v) dimethyl sulfoxide solution containing the test compound and 0.1% (w/v) of fluorescence labeled gelatin as substrate. The reaction was conducted for 6 hours at 37° C., and stopped by adding 30% (w/v) trichloroacetic acid solution by 1/2 amount. After letting stand at 4° C. for 30 minutes, by centrifugal separation for 10 minutes at 10000 rpm, 4° C., the undigested substrate was precipitated. To 1 part by volume of the obtained supernatant, 50 parts by volume of 0.3M phosphate buffer (pH 8.5) was added, and the fluorescence intensity was measured at 520 nm (Em)/495 nm (Ex), and the undigested amount was quantitatively determined.
The enzyme inhibiting activity was expressed by the concentration (IC50) of the test compound wherein the enzyme activity of known amount was blocked till 50%.

For a further test, the target named is T1, Stromelysin (Mus musculus, UniProt P28862).
T1 construct: endogenous in cells; host or cells: Colon 26 (mouse colon cancer cells), culture supernatant, purified
T1 sequence (P28862 100-477): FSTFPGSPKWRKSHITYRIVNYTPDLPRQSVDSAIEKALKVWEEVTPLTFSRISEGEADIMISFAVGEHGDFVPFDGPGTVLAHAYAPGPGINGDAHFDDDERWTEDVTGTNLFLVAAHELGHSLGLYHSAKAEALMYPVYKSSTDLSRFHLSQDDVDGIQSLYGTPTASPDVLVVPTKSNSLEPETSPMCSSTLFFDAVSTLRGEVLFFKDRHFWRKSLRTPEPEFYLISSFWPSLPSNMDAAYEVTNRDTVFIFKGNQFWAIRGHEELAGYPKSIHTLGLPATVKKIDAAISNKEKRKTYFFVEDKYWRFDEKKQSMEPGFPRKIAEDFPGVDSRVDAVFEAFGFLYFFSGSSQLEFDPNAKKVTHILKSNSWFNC
The test is described as follows: Stromelysin inhibiting activity (fluorescence labeled casein). The format is biochemical. Particulars: from mouse colon cancer cell (Colon 26); 3 hours at 37° C., pH 7.5. The method, then:
(1) Measuring Method of Stromelysin Inhibiting Activity
Inhibiting of Stromelysin refined from the culture supernatant of mouse colon cancer cell (Colon 26 cell) was measured by using fluorescence labeled casein, according to the method proposed by Miyazaki et al. (J. Biochem., 108, 537-543, 1990), and S. S. Twining [Fed. Proc., 42, 1951 (1984)].
The enzyme was activated by incubating for 2 hours at 37° C. in 1 mM mercury (II) p-aminophenylacetate. The test compound was used by dissolving in dimethyl sulfoxide. The enzyme reaction was started by adding the activated enzyme in a solution of 50 mM TRIS-hydrochloric acid (pH 7.5), 10 mM CaCl2, and 0.1% (v/v) dimethyl sulfoxide containing the test compound and 0.25% (w/v) of fluorescence labeled casein as substrate. The reaction was conducted for 3 hours at 37° C., and stopped by adding an equivalent amount of 5% (w/v) trichloroacetic acid solution. Afterwards, by centrifugal separation for 15 minutes at 3000 rpm, 4° C., the undigested substrate was precipitated, and to 1 part by volume of the obtained supernatant, 4 parts by volume of 0.3M phosphate buffer (pH 8.5) was added, and the fluorescence intensity was measured at 520 nm (Em)/495 nm (Ex), and the decomposition volume was quantitatively determined.
(§1) The enzyme inhibiting activity was expressed by the concentration (IC50) of the test compound wherein the enzyme activity of known amount was inhibited till 50%.

The target of a further test is T2, Interstitial collagenase (Homo sapiens, UniProt P03956).
T2 construct: endogenous in cells; host or cells: Detroit 551 (human fibroblasts), culture supernatant, purified
T2 sequence (P03956 100-469): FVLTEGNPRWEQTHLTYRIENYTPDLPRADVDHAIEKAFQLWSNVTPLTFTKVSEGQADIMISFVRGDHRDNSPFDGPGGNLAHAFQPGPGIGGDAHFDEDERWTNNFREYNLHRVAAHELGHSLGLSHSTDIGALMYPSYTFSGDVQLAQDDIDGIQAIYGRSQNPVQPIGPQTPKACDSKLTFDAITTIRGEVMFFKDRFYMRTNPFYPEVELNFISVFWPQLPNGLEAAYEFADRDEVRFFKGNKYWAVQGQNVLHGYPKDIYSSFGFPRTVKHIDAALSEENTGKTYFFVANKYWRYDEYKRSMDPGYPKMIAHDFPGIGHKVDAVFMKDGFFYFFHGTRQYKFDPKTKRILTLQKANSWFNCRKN
The test is described as follows: Interstitial collagenase inhibiting activity (fluorescence labeled collagen). The class given is biochemical. The following applies: from human fibroblast cell (Detroit 551); 2 hours at 35° C., pH 7.5. On the procedure:
(2) Measuring Method of Interstitial Collagenase Inhibiting Activity
Inhibiting of interstitial collagenase refined from the culture supernatant of human fibroblast cell (Detroit 551 cell) was measured by using fluorescence labeled collagen, according to the method proposed by Nagai et al. [Inflammation, 4 (2), 123 (1984)].
The enzyme was activated by incubating for 3 hours at 37° C. in 1 mM mercury (II) p-aminophenylacetate. The test compound was used by dissolving in dimethyl sulfoxide. The enzyme reaction was started by adding the activated enzyme in 50 mM TRIS-hydrochloric acid (pH 7.5), 0.2M NaCl, 5 mM CaCl2, 0.02% (w/v) NaN3, 2.5 mM acetic acid, and 0.1% (v/v) dimethyl sulfoxide solution containing the test compound and 0.025% (w/v) of fluorescence labeled collagen as substrate. The reaction was conducted for 2 hours at 35° C., and stopped by adding ice-chilled 80 mM O-phenanthroline, 50% (v/v) ethanol solution by 1/20 amount. To this, moreover, an equivalent volume of 50 mM TRIS-hydrochloric acid (pH 7.5), 0.2M NaCl, 5 mM CaCl2, 0.02% (w/v) NaN3 solution was added to incubate further for 1 hour at 35° C. to degenerate specifically only the digestion product, and the digestion product was extracted by adding 0.17M TRIS-hydrochloric acid (pH 9.5), 0.67M NaCl solution including an equivalent amount of 70% (v/v) ethanol, and afterwards, by centrifugal separation for 15 minutes at 3000 rpm, 4° C., the undigested substrate was precipitated. The fluorescence intensity of the obtained supernatant was measured at 520 nm (Em)/495 nm (Ex), and the decomposition volume was quantitatively determined.
as §1

Test [1] has as its system Colon 26 PMF15 tumor cells. In words: Lung metastasis of Colon 26 PMF15 tumor in mice after oral administration. The format is in vivo, male CDF1 mice. The following applies: Test I; for Number of lung metastastic nodules mean ± S.E.: day 28; for Ratio to control group: lung nodules. On the procedure: Experiment was carried out according to a method of Motoyama et al. [Gan To Kagaku Ryoho (JAPAN), 21(8): pages 1209-1214, 1994]. That is, Colon 26 PMF15 tumor cells (5×10^5 /mouse) were inoculated into the left hind footpad of male CDF1 mice (one group comprising 7 mice). After 14 days from inoculation, the left hind-limb was cut from the upper part of the articulatio geniculum under pentobarbital anesthetization using a cautery knife to remove the primary tumor. After 28 days from inoculation,the lung was removed and the number of metastastic nodules on the surface thereof were measured, thereby taking it as an index of the effect. The test compound was orally administered one time a day until 27 days have passed since the day following the day when tumor cells were inoculated, excluding the day when the primary tumor was removed.

In general, IC50 refers to the concentration needed to halve the response being measured. Read a low IC50 as higher potency. The compound “1-(4-carboxybenzyl)-3(R or S)-[4-(N-hydroxyamino)-2R-isobutylsuccinyl]amino-3,4-dihydrocarbostyril [Example 30]” came in with an IC50 on Type IV collagenase of 240 nM. This counts as sub-micromolar.

On Type IV collagenase, “3S- [4-(N-hydroxyamino)-2R-isobutyl-3S-methylsuccinyl]amino-3,4-dihydrocarbostyril [Example 17]” came in with a concentration for half-maximal inhibition (IC50) of 340 nM. This IC50 and that of the compound before are within 1.5-fold of each other.

In turn, “3S- [4-(N-hydroxyamino)-2R-isobutyl-succinyl ]amino-1-isobutoxy-3,4-dihydrocarbostyril [Example 21]” had an IC50 against Type IV collagenase of 340 nM.

In turn, “3S-[4-(N-hydroxyamino)-2R-isobutyl-3S-methylsuccinyl]amino-1-(4-methoxybenzyl)-3,4dihydrocarbostyril [Example 31]” displayed a concentration for half-maximal inhibition (IC50) against Type IV collagenase of 1400 nM.

For `CC(C)C[C@@H](C(=O)N[C@H]1Cc2ccccc2NC1=O)C(CN1C(=O)c2ccccc2C1=O)C(=O)NO` (single isomer, unassigned) [Test compound 7, 3S-[4-(N-hydroxyamino)-2R-isobutyl-3(R or S)-phthalimidomethylsuccinyl]amino-3,4-dihydrocarbostyril], the IC50 against Stromelysin was determined as 23 nM; on Type IV collagenase it was 18 nM.

Regarding `CC(C)C[C@H](CC(=O)NO)C(=O)N[C@H]1Cc2ccccc2NC1=O` [Test compound 1, 3S-[4-(N-hydroxyamino)-2R-isobutylsuccinyl]amino-3,4-dihydrocarbostyril], the IC50 against Interstitial collagenase was found to be 210 nM; at Stromelysin, 570 nM; at Type IV collagenase, 1700 nM.

With `COc1ccc2c(c1)NC(=O)[C@@H](NC(=O)[C@@H](CC(=O)NO)CC(C)C)C2` [Test compound 2, 3S-[4-(N-hydroxyamino)-2R-isobutylsuccinyl]amino-7-methoxy-3,4-dihydrocarbostyril], the IC50 against Interstitial collagenase was found to be 450 nM; against Stromelysin, 490 nM; against Type IV collagenase, 510 nM.

Consider `CON1C(=O)[C@@H](NC(=O)[C@@H](CC(=O)NO)CC(C)C)Cc2ccccc21` [Test compound 3, 3S-[4-(N-hydroxyamino)-2R-isobutylsuccinyl]amino-1-methoxy-3,4-dihydrocarbostyril], for which the IC50 was 690 nM on Interstitial collagenase, 1300 nM at Stromelysin and 530 nM against Type IV collagenase. Besides, the “Number of lung metastastic nodules mean ± S.E.” value in test [1] (25 mg/kg/day oral) stood at 19.0 ± 3.7; in test [1] (50 mg/kg/day oral), 18.7 ± 6.0; in test [1] (100 mg/kg/day oral), 13.0 ± 5.2; in test [1] (200 mg/kg/day oral), 9.2 ± 2.8. For the same compound, the “Ratio to control group” value in test [1] (25 mg/kg/day oral) turned out to be 90%; in test [1] (50 mg/kg/day oral), 88%; in test [1] (100 mg/kg/day oral), 61%; in test [1] (200 mg/kg/day oral) it was 43%.

Turning to `CC(=O)SC[C@H](C(=O)NO)[C@@H](CC(C)C)C(=O)N[C@H]1Cc2ccccc2NC1=O` [Test compound 4, 3S-[4-(N-hydroxyamino)-2R-isobutyl-3S-acetylthiomethylsuccinyl]amino-3,4-dihydrocarbostyril], the IC50 at Interstitial collagenase is 2900 nM; at Stromelysin, 850 nM; against Type IV collagenase, 1900 nM.

For `CC(C)C[C@@H](C(=O)N[C@H]1Cc2ccccc2NC1=O)[C@H](CS)C(=O)NO` [Test compound 5, 3S-[4-(N-hydroxyamino)-2R-isobutyl-3S-mercaptomethylsuccinyl]amino-3,4-dihydrocarbostyril], the IC50 against Interstitial collagenase was 360 nM; against Stromelysin, 150 nM; at Type IV collagenase, 540 nM.

As for `CC(C)C[C@@H](C(=O)N[C@H]1Cc2ccccc2NC1=O)[C@H](CSc1cccs1)C(=O)NO` [Test compound 6, 3S-[4-(N-hydroxyamino)-2R-isobutyl-3S-(2-thienylthiomethyl)succinyl]amino-3,4-dihydrocarbostyril], the results for the IC50 at Interstitial collagenase, at Stromelysin and against Type IV collagenase were 2.4 nM, 27 nM and 58 nM, respectively.

Consider `COCOCCN1C(=O)[C@@H](NC(=O)[C@@H](CC(=O)NO)CC(C)C)Cc2ccccc21` [Test compound 19, 3S-[4-(N-hydroxyamino)-2R-isobutylsuccinyl]amino-1-methoxymethoxyethyl-3,4-dihydrocarbostyril], for which the IC50 at Interstitial collagenase is 140 nM; against Type IV collagenase it was 9800 nM.

`CC(C)C[C@H](CC(=O)NO)C(=O)N[C@H]1Cc2cc3c(cc2N(C)C1=O)OCO3` [Test compound 27, 3S-[4-(N-hydroxyamino)-2R-isobutylsuccinyl]amino-1-methyl-6,7-methylenedioxy-3,4-dihydrocarbostyril]: the figures for the IC50 on Interstitial collagenase and on Type IV collagenase were 110 nM and 2200 nM, respectively.

On to `CCCCC[C@H](CC(=O)NO)C(=O)N[C@H]1Cc2cc3c(cc2N(CC)C1=O)OCO3` [Test compound 29, 1-ethyl-3S-[4-(N-hydroxyamino)-2R-pentylsuccinyl]amino-6,7-methylenedioxy-3,4-dihydrocarbostyril], for which the IC50 was found to be 14 nM at Interstitial collagenase and 200 nM against Type IV collagenase.
